Experimental data reported in patent US11306098B2, “Substituted pyrrolo[1,2-a]pyrazines and pyrrolo[1,2-a][1,4]diazepines as TREX1 inhibitors” (VENENUM BIODESIGN, LLC, priority 2019, dated 2022).

Columns and labels:
cleaved mouse TREX1 = cleaved mouse TREX1 (Mus musculus (Mouse), UniProt Q91XB0); experiment: TREX1 Thermal Shift Binding Assay (mouse); details: PBS, 100 μM compound, 5 μM TREX1; read-out: Thermal shift cleaved mouse TREX1, (ΔTm ° C.) PBS
Experimental: (§1) Example B is a protein thermal shift assay used to assess the binding of TREX1 inhibitors to TREX1 protein. In this assay, TREX1 protein unfolding with increasing temperature was measured in the presence and absence of TREX1 inhibitors by following the increase in fluorescence of a thiol-reactive dye (e.g BODIPY FL-cystine) as it reacts with exposed TREX1 cysteine residues. The assay was conducted using human (SEQ ID NO: 1), or murine (SEQ ID NO: 2) TREX1 protein constructs.
(§2) The thermal shift assays used recombinant protein corresponding to human (SEQ ID NO: 1) and murine (SEQ ID NO: 2) TREX1. The protein encoding plasmid contained a N-terminal MBP (maltose binding protein) tag followed by the TREX1 coding sequence within the pMAL-c5E vector. The plasmid was transfected into a BL21 (DE3) E. coli expression strain. Protein was purified from the bacterial lysate using an Amylose resin column. The MBP tag was cleaved from the purified protein using recombinant enterokinase (EMD Millipore #69066-3). The cleaved TREX1 protein was further purified on a Q-Sepharose column followed by a heparin column.
(§3) Binding of compounds to both human and murine TREX1 were measured by protein thermal shift assays. (Huynh K, Partch C L. Current Protocols in Protein Science: Analysis of protein stability and ligand interactions by thermal shift assay. Current protocols in protein science/editorial board, John E Coligan. [et al]. 2015; 79:28.9.1-28.9.14. doi:10.1002/0471140864.ps2809s79.). Thermal shift assays were conducted in sealed 96-well PCR plates containing 5 μM TREX1 protein, 100 μM compound, and 2 μM BODIPY FL-cystine (Sigma) in either 20 μL assay buffer (20 mM Tris, 7.5, 5 mM MgCl2, 0.002% Triton X-100) or 20 μL phosphate buffered saline (PBS). Using a RT-qPCR machine (Mx3005P, Stratagene) changes in fluorescence (excitation at 492 nm and emission at 516 nm) were monitored as temperature was increased from 25° C. to 96° C. at a rate of 1° C. every 2 minutes. Tm values were calculated from the first derivative plot of fluorescence intensity versus temperature. The results shown in Table 6 indicate the examples bind to human TREX1 and murine TREX1. ND indicates assay was not done.

cleaved human TREX1 = cleaved human TREX1 (Homo sapiens (Human), UniProt Q9NSU2); experiment: TREX1 Thermal Shift Binding Assay (human); details: assay buffer, 100 μM compound, 5 μM TREX1; read-out: Thermal shift cleaved human TREX1, (ΔTm ° C.) Assay buffer
Experimental: as §1, §2, §3

murine TREX1 = murine TREX1 (Mus musculus (Mouse), UniProt Q91XB0); experiment: TREX1 Exonuclease Assay (murine enzyme); type: biochemical; details: murine TREX1 1 nM, FAM/BHQ1-labeled DNA oligonucleotide
In short: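 Human TREX1 (aa 55-297, 0.5 nM) or murine TREX1 (aa 1-242, 1 nM) preincubated 30 min with compound (11-point, 3-fold), then 500 nM FAM/BHQ1-quenched DNA oligo added; 45 min at room temperature in pH 7.5 Tris buffer with 5 mM MgCl2, EDTA-stopped. Fluorescence (ex 485/em 535 nm) fit to four-parameter curve for IC50.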

Chain of cleaved mouse TREX1 (Q91XB0 1-242): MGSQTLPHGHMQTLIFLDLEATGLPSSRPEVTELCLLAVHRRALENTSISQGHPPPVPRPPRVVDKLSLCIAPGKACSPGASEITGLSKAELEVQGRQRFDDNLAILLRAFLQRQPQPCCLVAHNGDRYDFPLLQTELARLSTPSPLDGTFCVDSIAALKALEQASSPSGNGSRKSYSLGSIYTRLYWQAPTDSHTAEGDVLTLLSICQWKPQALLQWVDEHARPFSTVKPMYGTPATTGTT
Chain of murine TREX1 (Q91XB0 1-242): as above
Chain of cleaved human TREX1 (Q9NSU2 1-242): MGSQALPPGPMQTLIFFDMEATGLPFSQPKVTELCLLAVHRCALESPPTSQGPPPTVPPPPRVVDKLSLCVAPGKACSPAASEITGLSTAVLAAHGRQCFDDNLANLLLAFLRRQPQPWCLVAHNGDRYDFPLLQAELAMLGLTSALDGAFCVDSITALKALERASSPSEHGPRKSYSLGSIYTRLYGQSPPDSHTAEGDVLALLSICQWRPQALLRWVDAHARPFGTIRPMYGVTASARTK

`N[C@@H]1C[C@H]2C(=O)N([C@H](CCC(=O)O)C(=O)NCc3ccc(Cl)c(Cl)c3)CCC(CCc3ccccc3)N2C1` (stereo partly drawn) [Example 14B] was tested, and the ΔTm at 100 µM (cleaved mouse TREX1) was greater than 8 °C, the ΔTm at 100 µM (cleaved human TREX1) was greater than 8 °C and the IC50 (murine TREX1) was less than 1000 nM.
